≈ marks a conversion by molar mass, not a printed value. Like-named read-outs stand apart in the source and are kept apart here.
Experiments:
[1] = target: T1, E. coli fabI (Escherichia coli, UniProt P0AEK4); experiment: fabI kinetic assay (NADH absorption at 340 nm, crotonoyl-CoA substrate); format: biochemical
T1 construct: made in house; host or cells: E. coli BL21(DE3)
Description: In order to perform more detailed kinetic assays on the disclosed compounds, additional purifed fabI was needed. The E. coli fabI gene was cloned into the pET30a expression vector (Novagen, Inc., Madison, Wis.) and expressed in E. coli BL21(DE3) cells. The purification procedure utilized chromatography with Q-sepharose, blue resin, and HA resin as follows.
Each cell pellet was suspended in a 4 fold-volume of lysis buffer (50 mM KH2PO4 pH 8.0, 100 mM NaCl, 2 mM ethylene glycol tetra-acetic acid (EGTA), and 10% glycerol). Cells were broken by passage through a Microfludics cell disrupter 4 times, and the cell lysate was centrifuged at 30,000×g for 20 minutes. The supernatant was applied to a Q-sepharose column pre-equilibrated in a buffer composed of 10 mM Tris-HCl pH 8.0, 0.1 mM EGTA, 1 mM phenylmethylsulfonylfluoride (PMSF), 100 mM NaCl, 10% glycerol, 0.1% β-mercaptoethanol, and 0.02% Brij 35. fabI was eluted with a NaCl gradient (0.1-1M) in the equilibration buffer. The major peak fractions were pooled and concentrated, then dialyzed overnight at 4° C. in 2 L of dialysis buffer (10 mM Tris-HCl pH 7.5, 0.1 mM EGTA, 0.1 mM PMSF, 10% glycerol, 0.1% β-mercaptoethanol, and 0.02% Brij 35). The dialyzed solution was centrifuged at 3,000×g for 20 minutes, and the supernatant was loaded on a blue resin column pre-equilibrated in a buffer composed of 10 mM Tris-HCl pH 7.5, 0.1 mM EGTA, 1 mM PMSF, 50 mM NaCl, 10% glycerol, 0.1% β-mercaptoethanol, and 0.02% Brij 35. fabI was eluted with the equilibration buffer containing NaCl (gradient 50˜1000 mM). The major peak fractions were pooled and dialyzed overnight at 4° C. in 2 L of the equilibration buffer as described above. Then the dialyzed solution was centrifuged at 3,000×g for 20 minutes, and the supernatant was further purified on a hydroxyapatite column pre-equilibrated in a buffer consisting of 20 mM KH2PO4 pH 8.0, 0.1 mM EGTA, 0.1 mM PMSF, 10% glycerol, 0.1% β-mercaptoethanol, and 0.02% Brij 35. fabI was eluted with a gradient of KH2PO4 up to 500 mM. The peak fractions were pooled and dialyzed in storage buffer (10 mM MOPS pH7.0, 150 mM NaCl, 0.1 mM EGTA, 50% glycerol, 0.02% Brij 35), then stored at −20° C.
The kinetic assay was used to confirm the activity of compounds identified by the single-point assay and screen and to measure the IC50 of compounds which inhibit fabI. It was performed in a 96 well microtiter dish. The final concentrations of each component in each 50 μl reaction are as follows—sodium phosphate pH 7.5, 100 mM; NADH, 200 uM; dithiothreitol (DTT), 1 mM; fabI, 3 ug/ml; crotonoyl-CoA, 0.8 mM.
A 2 ul volume of each compound to be tested was loaded into each well, followed by 30 ul Buffer A (sodium phosphate pH7.5, 100 mM; DTT, 1 mM; fabI, 5 ug/ml, obtained as described below). For IC50 measurements, the compound was tested in serial dilution. The reaction was initiated by adding 20 ul Buffer B (sodium phosphate pH7.5, 100 mM; NADH, 500 uM; DTT, 1 mM; and the substrate, crotonoyl-CoA, 2 mM). The reaction was monitored for 5.5 minutes on a spectrometer by measuring absorption at 340 nm. The rate of reduction of NADH in each reaction well was collected and the percentage inhibition was calculated by using SOFTmax® PRO software (Molecular Devices, Sunnyvale, Calif.). The percentage of inhibition of each compound was calculated according to following formula: Percentage Inhibition=100*(rate in the presence of compound-rate of negative control)/(rate of positive control-rate of negative control)
The negative control was the reaction of fabI in the presence of 2% DMSO but no inhibitory compounds, and the positive control was the mixture of the all reaction components excluding fabI.

[2] = tested on: methicillin resistant Staphyloccocus aureus (MRSA, strain ATCC 700699); experiment: MIC against methicillin resistant S. aureus (NCCLS dilution); format: cell-based; details: Staphylococcus aureus, serial two-fold dilutions, 96-well
Description: The sensitivity of methicillin resistant Staphyloccocus aureus (MRSA, strain ATCC 700699, American Type Culture Collection, Manassas, Va.) to the disclosed fabI inhibitors was followed by measuring the minimal inhibitory concentration (MIC) at varying inhibitor levels. This was performed according to NCCLS (National Center for Clinical Laboratory Standards) recommendations (NCCLS, 1997, METHODS FOR DILUTION ANTIMICROBIAL SUSCEPTIBILITY TESTS FOR BACTERIA THAT GROW AEROBICALLY, 4th ed.; approved standard. NCCLS document M7-A4. NCCLS, Wayne, Pa.), in 100 μl volume in 96-well format, with serial two-fold dilutions of drug concentration.

[3] = tested on: strain of Staphylococcus aureus that under-expresses a fabI gene under control of a regulated promoter; experiment: MIC in IPTG-regulated fabI under-expressing S. aureus strain; format: cell-based
Source text: In general, a bacterial strain which is under-producing the target of interest will be more sensitive to test compounds than a wild-type strain if the compound is acting via inhibition of that target. Accordingly, a strain of Staphylococcus aureus that under-expresses a fabI gene under control of a regulated promoter was constructed.
First, the endogenous S. aureus fabI gene was replaced with a drug-resistance marker (erythromycin-resistance, erm^r) in a two-step allele-replacement procedure (see F. Fan et al., Plasmid, 2001, 46: 71-75). About 1 Kb of DNA sequence flanking each side of the S. aureus fabI gene (SwissProt Q9RMI3; M. Kuroda et al., Lancet 2001, 357:1225-1240) was PCR-amplified from genomic DNA, ligated to an erythromycin-resistance cassette by cross-over PCR (A. J. Link et al., J. Bacteriol., 1997, 179: 6228-6237), and cloned into an allele-replacement suicide vector carrying a kanamycin-resistance marker (kan^r) and the sacB gene encoding levansucrase. This allele-replacement plasmid was introduced by electroporation into an S. aureus host strain carrying the E. coli lactose operon repressor (lacI) and a lac-promoter driving T7 RNA polymerase production from the chromosome. Selection for kan^r yielded cells containing the entire plasmid by means of a single cross-over recombination. […]

[4] = tested on: fabI (acetate incorporation into fatty acids) in S. aureus strain ATCC 700699; experiment: 14C acetate incorporation into fatty acids in S. aureus; format: cell-based; details: 0.25x-2x MIC; 0-30 min at 37° C.; FIG. 1
Description: Radioactive (14C) acetic acid was added to 0.4 uCi/ml. After incubation at 37° C. for 0, 5, 10, 15, and 30 minutes, samples were taken, and cells were added to ice cold 10% trichloroacetic acid (TCA) for 30 min. Next, cells were filtered (Millipore MultiScreen-FC filters), washed 2× with 200 ul and 1× with 100 ul cold 10% TCA followed by 2× with 200 ul and 1× with 100 ul cold water. The filters were added to 5 ml scintillation fluid and counts per minute were measured in a scintillation counter. The % inhibition of acetate incorporation into fatty acids was determined by comparison to a control consisting of cells not treated with inhibitor.

T1 sequence (P0AEK4 whole entry): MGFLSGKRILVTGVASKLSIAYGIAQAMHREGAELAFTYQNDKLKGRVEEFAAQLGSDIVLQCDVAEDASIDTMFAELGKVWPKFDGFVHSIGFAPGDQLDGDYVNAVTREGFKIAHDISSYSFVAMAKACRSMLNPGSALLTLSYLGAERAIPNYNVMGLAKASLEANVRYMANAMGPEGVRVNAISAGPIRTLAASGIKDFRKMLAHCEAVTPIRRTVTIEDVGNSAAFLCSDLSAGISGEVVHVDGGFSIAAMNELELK

Compound | IC50 [1] [µM] | MIC [2] [µg/mL] | MIC ([3]; read-out: minimum inhibitory concentration (MIC), fabI regulated by IPTG, before the inducer (IPTG) level was reduced) [µg/mL] | MIC ([3]; read-out: minimum inhibitory concentration (MIC), fabI regulated by IPTG, inducer (IPTG) level reduced) [µg/mL] | inhibition of acetate incorporation into fatty acids (activity of fabI) [4] | IC50 ([1]; purified E. coli fabI 3 ug/ml, NADH 200 uM, crotonoyl-CoA 0.8 mM, pH 7.5, read-out: IC50) [µM]
CC(C)NC(=O)CSc1nc(-c2cccs2)cc(-c2ccc(F)cc2)c1C#N [B] | 12 | > 64 |  |  |  | 
N#Cc1c(-c2cccs2)cc(-c2cccs2)nc1SCc1ccc(C(=O)O)cc1 [Compound A] | 4 | 2 (≈ 4.6 µM) | 8 | 4 | marked inhibition | 
N#Cc1c(-c2cccs2)cc(-c2cccs2)nc1SC(C(=O)O)c1ccccc1 (centres unmarked) [Compound C] | 12.3 | 32 (≈ 73.6 µM) |  |  |  | 
COc1ccc(NC(=O)CSc2nc(-c3cccs3)cc(-c3ccc(F)cc3)c2C#N)cc1OC [D] | 9.2 | > 64 |  |  |  | 
N#Cc1c(-c2cccs2)cc(-c2cccs2)nc1SCCc1ccc(C(=O)O)cc1 [E] | 3 | 0.75 (≈ 1.67 µM) |  |  |  | 
CC(Sc1nc(-c2cccs2)cc(-c2cccs2)c1C#N)c1ccc(C(=O)O)cc1 (centres unmarked) [F] | 3 | 0.75 (≈ 1.67 µM) |  |  |  | 
N#Cc1c(-c2cccs2)cc(-c2cccs2)nc1SCc1cccc(C(=O)O)c1 [G] | 6 | 1.5 (≈ 3.45 µM) |  |  |  | 
N#Cc1c(-c2cccs2)cc(-c2cccs2)nc1SCc1ccc(CC(=O)O)cc1 [H] | 25 | 4 (≈ 8.92 µM) |  |  |  | 
COc1ccc(-c2cc(-c3ccco3)c(C#N)c(SCc3ccc(C(=O)O)cc3)n2)cc1 [I] | 25 | 8 (≈ 18.1 µM) |  |  |  | 
CC(C)NC(=O)CSc1nc(-c2cccs2)cc(-c2ccc(Cl)cc2)c1C#N [N] | 46 | > 64 |  |  |  | 
N#Cc1c(-c2cccs2)cc(-c2cccs2)nc1SCCC(=O)O [P] |  |  |  |  |  | 87
N#Cc1c(-c2ccc(Cl)cc2)cc(-c2cccs2)nc1SCC(N)=O [Q] | 33 | > 64 |  |  |  | 

— patent publication US20070027190A1, “Antibacterial fab i inhibitors” (priority 2003, published 2007)
